Patent publication US6465654B2, “Process for preparing 1-substituted, 2-substituted 1H-imidazo[4, 5-c]quinoline-4-amines” (3M Innovative Properties Company, priority 1991, dated 2002)

What was measured:
[1] = test system: Herpes simplex virus Type II strain 333; assay: Antiviral activity in guinea pigs infected with Herpes simplex virus Type II (lesion inhibition); format: in vivo; conditions: oral once daily for four days
Source text: Female Hartley guinea pigs weighing 200 to 250 g are anesthetized with methoxyflurane (available under the […] from Pitman-Moore, Inc., Washington Crossing, N.J.), after which the vaginal area is swabbed with a dry cotton swab. The guinea pigs are then infected intravaginally with a cotton swab saturated with Herpes simplex virus Type II strain 333 (1×10^5 plaque forming units/mL). Guinea pigs are assigned to groups of 7 animals; one group for each treatment and one to serve as a control (vehicle treated). The compounds of the invention are formulated in water containing 5% Tween 80 (a polyoxyethylene sorbitan monooleate available from Aldrich Chemical Company, Inc., Milwaukee, Wis.). The, guinea pigs are treated orally once daily for four consecutive days starting 24 hours after infection. Antiviral activity is evaluated by comparing lesion development in compound-treated versus vehicle-treated guinea pigs. […] The maximum lesion score of each guinea pig is used to calculate the percentage lesion inhibition. The percentage lesion inhibition is calculated as follows: […]

[2] = test system: interferon; assay: Interferon induction in mice; format: in vivo; conditions: mouse serum
Summary of the method: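 Mouse serum collected at 1, 2 and 4 h (separate groups), pooled, stored at −70° C, then assayed as for human-cell interferon. Values in α/β reference units/mL against a mouse MU-1-IF standard; "<" marks levels below assay sensitivity.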

[3] = test system: interferon; assay: Interferon induction in guinea pigs (serum interferon titer); format: in vivo; conditions: guinea pig serum 24 hours after initial oral dose, 2 mg/kg
Source text: Female Hartley guinea pigs weighing 200 to 250 g are anesthetized with methoxyflurane (available under the […] from Pitman-Moore, Inc., Washington Crossing, N.J.), after which the vaginal area is swabbed with a dry cotton swab. The guinea pigs are then infected intravaginally with a cotton swab saturated with Herpes simplex virus Type II strain 333 (1×10^5 plaque forming units/mL). Guinea pigs are assigned to groups of 7 animals; one group for each treatment and one to serve as a control (vehicle treated). The compounds of the invention are formulated in water containing 5% Tween 80 (a polyoxyethylene sorbitan monooleate available from Aldrich Chemical Company, Inc., Milwaukee, Wis.). The, guinea pigs are treated orally once daily for four consecutive days starting 24 hours after infection. Twenty-four hours after the initial dose of test compound has been administered, blood is obtained from 3 guinea pigs from each treatment group by cardiac puncture of methoxyflurane anesthetized animals. Blood is pooled and allowed to clot at room temperature. After low speed centrifugation, serum is collected and stored at -70° C. until analysis. Interferon levels in the guinea pig serum are determined in a standard microtiter assay using transformed guinea pig cells (ATCC CRL 1405). The interferon assay is done in 96 well microtiter plates. Confluent monolayers of transformed guinea pig cells are treated with dilutions of guinea pig serum made with medium 199 (GIBCO, Grand Island, N.Y.). The cell and serum dilutions are incubated at 37° C. overnight. The following day, the medium and serum are removed and about 10 plaque forming units of Mengovirus are added to each well. Controls consist of wells that receive no guinea pig serum (virus positive control) and wells that receive no virus (virus negative control). Cells and virus are incubated for 2 to 3 days at 37° C. before quantifying for viral cytopathic effect. The viral cytopathic effect is quantified by staining with 0.05% crystal violet followed by spectrophotometric absorbance measurements. The titer of interferon in serum is expressed as units/mL and is the reciprocal of the highest dilution that protects cells from virus.

[4] = test system: interferon-α; assay: Interferon-α induction in human cells, PBM; format: cell-based; conditions: 24 hours
[5] = test system: interferon-α; assay: Interferon-α induction in human cells, diluted whole blood; format: cell-based; conditions: 24 hours
[6] = test system: MC-26 colon tumor cells; assay: Inhibition of MC-26 tumors in mice, 14 day lung colony count; format: in vivo; conditions: lung colonies day 14, 4×10^4 MC-26 cells i.v., oral 30 mg/kg on days 3-7 and 10-14; control 385 ± 31
Experimental: The mice are sacrificed 14 days later. […] Five mice are in each treatment group and comparisons are made to controls. […] The mice in the control groups were dosed orally with saline (10 mL/kg) on days 3, 4, 5, 6, and 7, and with water (10 mL/kg) on days 10, 11, 12, 13, and 14.

Compound: CC(C)Cn1c(CO)nc2c(N)nc3ccccc3c21 [Example 9, 4-Amino-1-(2-methylpropyl)-1H-imidazo-[4,5-c]quinoline-2-methanol]
- % Lesion Inhibition ([1]; dose 2 mg/kg): 37%
- Interferon induction in mice ([2]; oral 1 mg/kg, 1 hr): <47 Reference Units/mL
- Interferon induction in mice ([2]; oral 1 mg/kg, 2 hr): <47 Reference Units/mL
- Interferon induction in mice ([2]; oral 1 mg/kg, 4 hr): <47 Reference Units/mL
- Interferon induction in mice ([2]; oral 3 mg/kg, 1 hr): ≦47 Reference Units/mL
- Interferon induction in mice ([2]; oral 3 mg/kg, 2 hr): ≦47 Reference Units/mL
- Interferon induction in mice ([2]; oral 3 mg/kg, 4 hr): <47 Reference Units/mL
- Interferon induction in mice ([2]; oral 10 mg/kg, 1 hr): 330 Reference Units/mL
- Interferon induction in mice ([2]; oral 10 mg/kg, 2 hr): 740 Reference Units/mL
- Interferon induction in mice ([2]; oral 10 mg/kg, 4 hr): ≦47 Reference Units/mL
- Interferon induction in mice ([2]; oral 30 mg/kg, 1 hr): 2900 Reference Units/mL
- Interferon induction in mice ([2]; oral 30 mg/kg, 2 hr): 5000 Reference Units/mL
- Interferon induction in mice ([2]; oral 30 mg/kg, 4 hr): 4 Reference Units/mL
- Reference Units/mL (interferon in serum) [3]: 266 Units/mL
- Interferon-α induction ([4]; dose concentration 0.01 μg/mL): <1.8 α Reference Units/mL
- Interferon-α induction ([4]; dose concentration 0.05 μg/mL): 16 α Reference Units/mL
- Interferon-α induction ([4]; dose concentration 0.10 μg/mL): 140 α Reference Units/mL
- Interferon-α induction ([4]; dose concentration 0.50 μg/mL): 750 α Reference Units/mL
- Interferon-α induction ([4]; dose concentration 1.0 μg/mL): 750 α Reference Units/mL
- Interferon-α induction ([4]; dose concentration 5.0 μg/mL): 750 α Reference Units/mL

Compound: CC(C)Cn1c(CCl)nc2c(N)nc3ccccc3c21.Cl [Example 10, 2-Chloromethyl-1-(2-methylpropyl)-1H-imidazo[4,5-c]quinolin-4-amine Hydrochloride]
- % Lesion Inhibition ([1]; dose 0.5 mg/kg): 29%
- Interferon induction in mice ([2]; oral 0.3 mg/kg, 1 hr): <120 Reference Units/mL
- Interferon induction in mice ([2]; oral 0.3 mg/kg, 2 hr): <120 Reference Units/mL
- Interferon induction in mice ([2]; oral 0.3 mg/kg, 4 hr): <120 Reference Units/mL
- Interferon induction in mice ([2]; oral 1 mg/kg, 1 hr): <120 Reference Units/mL
- Interferon induction in mice ([2]; oral 1 mg/kg, 2 hr): <120 Reference Units/mL
- Interferon induction in mice ([2]; oral 1 mg/kg, 4 hr): <120 Reference Units/mL
- Interferon induction in mice ([2]; oral 3 mg/kg, 1 hr): <120 Reference Units/mL
- Interferon induction in mice ([2]; oral 3 mg/kg, 2 hr): <120 Reference Units/mL
- Interferon induction in mice ([2]; oral 3 mg/kg, 4 hr): <120 Reference Units/mL
- Interferon induction in mice ([2]; oral 10 mg/kg, 1 hr): <120 Reference Units/mL
- Interferon induction in mice ([2]; oral 10 mg/kg, 2 hr): <120 Reference Units/mL
- Interferon induction in mice ([2]; oral 10 mg/kg, 4 hr): 600 Reference Units/mL
- Interferon-α induction ([4]; dose concentration 0.01 μg/mL): <1.3 α Reference Units/mL
- Interferon-α induction ([4]; dose concentration 0.05 μg/mL): 28 α Reference Units/mL
- Interferon-α induction ([4]; dose concentration 0.10 μg/mL): 140 α Reference Units/mL
- Interferon-α induction ([4]; dose concentration 0.50 μg/mL): 750 α Reference Units/mL
- Interferon-α induction ([4]; dose concentration 1.0 μg/mL): 750 α Reference Units/mL
- Interferon-α induction ([4]; dose concentration 5.0 μg/mL): 190 α Reference Units/mL
- Interferon-α induction ([5]; dose concentration 0.10 μg/mL): <1.5 α Reference Units/mL
- Interferon-α induction ([5]; dose concentration 0.50 μg/mL): 96 α Reference Units/mL
- Interferon-α induction ([5]; dose concentration 1.0 μg/mL): 120 α Reference Units/mL
- Interferon-α induction ([5]; dose concentration 5.0 μg/mL): 120 α Reference Units/mL

Compound: CC(C)Cn1c(CN2CCCC2)nc2c(N)nc3ccccc3c21 [Example 13, 1-(2-Methylpropyl)-2-pyrrolidinomethyl-1H-imidazo[4,5-c]quinolin-4-amine]
- % Lesion Inhibition ([1]; dose 2 mg/kg): 67%
- Interferon induction in mice ([2]; oral 0.3 mg/kg, 1 hr): <59 Reference Units/mL
- Interferon induction in mice ([2]; oral 0.3 mg/kg, 2 hr): ≦130 Reference Units/mL
- Interferon induction in mice ([2]; oral 0.3 mg/kg, 4 hr): <59 Reference Units/mL
- Interferon induction in mice ([2]; oral 1 mg/kg, 1 hr): 130 Reference Units/mL
- Interferon induction in mice ([2]; oral 1 mg/kg, 2 hr): 530 Reference Units/mL
- Interferon induction in mice ([2]; oral 1 mg/kg, 4 hr): ≦100 Reference Units/mL
- Interferon induction in mice ([2]; oral 3 mg/kg, 1 hr): 230 Reference Units/mL
- Interferon induction in mice ([2]; oral 3 mg/kg, 2 hr): 400 Reference Units/mL
- Interferon induction in mice ([2]; oral 3 mg/kg, 4 hr): 130 Reference Units/mL
- Interferon induction in mice ([2]; oral 10 mg/kg, 1 hr): 700 Reference Units/mL
- Interferon induction in mice ([2]; oral 10 mg/kg, 2 hr): 1200 Reference Units/mL
- Interferon induction in mice ([2]; oral 10 mg/kg, 4 hr): 400 Reference Units/mL
- Interferon-α induction ([4]; dose concentration 0.10 μg/mL): <1.9 α Reference Units/mL
- Interferon-α induction ([4]; dose concentration 0.50 μg/mL): 10 α Reference Units/mL
- Interferon-α induction ([4]; dose concentration 1.0 μg/mL): 10 α Reference Units/mL
- Interferon-α induction ([4]; dose concentration 5.0 μg/mL): 4 α Reference Units/mL

Compound: CC(C)Cn1c(C(C)O)nc2c(N)nc3ccccc3c21 (stereo not drawn) [Example 20, 4-Amino-α-methyl-1-(2-methylpropyl)-1H-imidazo[4,5c]-quinoline-2-methanol]
- % Lesion Inhibition ([1]; dose 2 mg/kg): 100%
- Interferon induction in mice ([2]; oral 1 mg/kg, 1 hr): 140 Reference Units/mL
- Interferon induction in mice ([2]; oral 1 mg/kg, 2 hr): 560 Reference Units/mL
- Interferon induction in mice ([2]; oral 1 mg/kg, 4 hr): <47 Reference Units/mL
- Interferon induction in mice ([2]; oral 3 mg/kg, 1 hr): 970 Reference Units/mL
- Interferon induction in mice ([2]; oral 3 mg/kg, 2 hr): 1200 Reference Units/mL
- Interferon induction in mice ([2]; oral 3 mg/kg, 4 hr): 140 Reference Units/mL
- Interferon induction in mice ([2]; oral 10 mg/kg, 1 hr): 2200 Reference Units/mL
- Interferon induction in mice ([2]; oral 10 mg/kg, 2 hr): 5000 Reference Units/mL
- Interferon induction in mice ([2]; oral 10 mg/kg, 4 hr): 100 Reference Units/mL
- Interferon induction in mice ([2]; oral 30 mg/kg, 1 hr): 2200 Reference Units/mL
- Interferon induction in mice ([2]; oral 30 mg/kg, 2 hr): 8700 Reference Units/mL
- Interferon induction in mice ([2]; oral 30 mg/kg, 4 hr): 320 Reference Units/mL
- Interferon-α induction ([4]; dose concentration 0.01 μg/mL): <1.8 α Reference Units/mL
- Interferon-α induction ([4]; dose concentration 0.05 μg/mL): 190 α Reference Units/mL
- Interferon-α induction ([4]; dose concentration 0.10 μg/mL): 190 α Reference Units/mL
- Interferon-α induction ([4]; dose concentration 0.50 μg/mL): 1000 α Reference Units/mL
- Interferon-α induction ([4]; dose concentration 1.0 μg/mL): 1000 α Reference Units/mL
- Interferon-α induction ([4]; dose concentration 5.0 μg/mL): 1000 α Reference Units/mL
- Interferon-α induction ([5]; dose concentration 0.10 μg/mL): 85 α Reference Units/mL
- Interferon-α induction ([5]; dose concentration 0.50 μg/mL): 440 α Reference Units/mL
- Interferon-α induction ([5]; dose concentration 1.0 μg/mL): 250 α Reference Units/mL
- Interferon-α induction ([5]; dose concentration 5.0 μg/mL): 190 α Reference Units/mL

Compound: COCc1nc2c(N)nc3ccccc3c2n1CC(C)C [Example 34, 2-Methoxymethyl-1-(2-methylpropyl)-1H-imidazo[4,5-c]quinolin-4-amine]
- Interferon induction in mice ([2]; oral 0.3 mg/kg, 1 hr): ≦61 Reference Units/mL
- Interferon induction in mice ([2]; oral 0.3 mg/kg, 2 hr): ≦61 Reference Units/mL
- Interferon induction in mice ([2]; oral 0.3 mg/kg, 4 hr): ≦61 Reference Units/mL
- Interferon induction in mice ([2]; oral 1 mg/kg, 1 hr): 140 Reference Units/mL
- Interferon induction in mice ([2]; oral 1 mg/kg, 2 hr): 320 Reference Units/mL
- Interferon induction in mice ([2]; oral 1 mg/kg, 4 hr): ≦61 Reference Units/mL
- Interferon induction in mice ([2]; oral 3 mg/kg, 1 hr): 420 Reference Units/mL
- Interferon induction in mice ([2]; oral 3 mg/kg, 2 hr): 420 Reference Units/mL
- Interferon induction in mice ([2]; oral 3 mg/kg, 4 hr): 140 Reference Units/mL
- Interferon induction in mice ([2]; oral 10 mg/kg, 1 hr): 1100 Reference Units/mL
- Interferon induction in mice ([2]; oral 10 mg/kg, 2 hr): 1100 Reference Units/mL
- Interferon induction in mice ([2]; oral 10 mg/kg, 4 hr): 180 Reference Units/mL
- Number of Colonies [6]: 196 ± 20
- Interferon-α induction ([4]; dose concentration 0.01 μg/mL): <4 α Reference Units/mL
- Interferon-α induction ([4]; dose concentration 0.05 μg/mL): <4 α Reference Units/mL
- Interferon-α induction ([4]; dose concentration 0.10 μg/mL): 1600 α Reference Units/mL
- Interferon-α induction ([4]; dose concentration 0.50 μg/mL): 550 α Reference Units/mL
- Interferon-α induction ([4]; dose concentration 1.0 μg/mL): 180 α Reference Units/mL
- Interferon-α induction ([4]; dose concentration 5.0 μg/mL): 200 α Reference Units/mL
